Data published in PubChem BioAssay (NCI).
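GI50: concentration for 50% inhibition of growth. TGI: total growth inhibition.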

Legend:
Experiment in all cases: growth of human tumour cells (NCI), 384-well format
TK-10 renal = test system: TK-10 renal
HCT-116 colon = test system: HCT-116 colon
BT-549 breast = test system: BT-549 breast
DU-145 prostate = test system: DU-145 prostate
MDA-MB-435 melanoma = test system: MDA-MB-435 melanoma
MDA-MB-468 breast = test system: MDA-MB-468 breast
SK-MEL-5 melanoma = test system: SK-MEL-5 melanoma
HOP-92 NSCLC = test system: HOP-92 NSCLC
786-0 renal = test system: 786-0 renal
SN12C renal = test system: SN12C renal
SK-MEL-28 melanoma = test system: SK-MEL-28 melanoma
UACC-257 melanoma = test system: UACC-257 melanoma
U251 glioblastoma = test system: U251 glioblastoma
RPMI-8226 leukemia = test system: RPMI-8226 leukemia
LOX IMVI melanoma = test system: LOX IMVI melanoma
OVCAR-5 ovarian = test system: OVCAR-5 ovarian
HL-60(TB) leukemia = test system: HL-60(TB) leukemia
SW-620 colon = test system: SW-620 colon
KM12 colon = test system: KM12 colon
UACC-62 melanoma = test system: UACC-62 melanoma
NCI-H460 NSCLC = test system: NCI-H460 NSCLC
HT29 colon = test system: HT29 colon
MDA-MB-231 breast = test system: MDA-MB-231 breast
K-562 leukemia = test system: K-562 leukemia
SK-OV-3 ovarian = test system: SK-OV-3 ovarian
HCC-2998 colon = test system: HCC-2998 colon
OVCAR-4 ovarian = test system: OVCAR-4 ovarian
CCRF-CEM leukemia = test system: CCRF-CEM leukemia
NCI-H226 lung = test system: NCI-H226 lung
SF-539 CNS = test system: SF-539 CNS
SK-MEL-2 melanoma = test system: SK-MEL-2 melanoma
A549 NSCLC = test system: A549 NSCLC
IGROV1 ovarian = test system: IGROV1 ovarian
NCI-H322M lung = test system: NCI-H322M lung
MALME-3M melanoma = test system: MALME-3M melanoma
SNB-19 CNS = test system: SNB-19 CNS
NCI/ADR-RES ovarian = test system: NCI/ADR-RES ovarian
OVCAR-8 ovarian = test system: OVCAR-8 ovarian
HOP-62 NSCLC = test system: HOP-62 NSCLC
SR leukemia = test system: SR leukemia
M14 melanoma = test system: M14 melanoma
MOLT-4 leukemia = test system: MOLT-4 leukemia
OVCAR-3 ovarian = test system: OVCAR-3 ovarian
NCI-H23 lung = test system: NCI-H23 lung
NCI-H522 lung = test system: NCI-H522 lung
UO-31 renal = test system: UO-31 renal
SF-295 CNS = test system: SF-295 CNS
PC-3 prostate = test system: PC-3 prostate
A498 renal = test system: A498 renal
RXF 393 renal = test system: RXF 393 renal
SF-268 CNS = test system: SF-268 CNS
MCF7 breast = test system: MCF7 breast
T-47D breast = test system: T-47D breast
HCT-15 colon = test system: HCT-15 colon
ACHN renal = test system: ACHN renal
COLO 205 colon = test system: COLO 205 colon
CAKI-1 renal = test system: CAKI-1 renal

Structure (SMILES): C=Cc1c(C)c2cc3nc(cc4[nH]c(cc5nc(cc1[nH]2)C(C)=C5CCC(=O)O)c(CCC(=O)OC)c4C)[C@@]1(C)C3=CC=C(C(=O)OC)[C@H]1C(=O)OC
- GI50 (TK-10 renal): 2.4 µM
- TGI (TK-10 renal): 6.19 µM
- GI50 (HCT-116 colon): 1.28 µM
- TGI (HCT-116 colon): 2.77 µM
- GI50 (BT-549 breast): 1.32 µM
- TGI (BT-549 breast): 3.3 µM
- GI50 (DU-145 prostate): 2.22 µM
- TGI (DU-145 prostate): 5.49 µM
- GI50 (MDA-MB-435 melanoma): 2.36 µM
- TGI (MDA-MB-435 melanoma): 5.48 µM
- GI50 (MDA-MB-468 breast): 0.75 µM
- TGI (MDA-MB-468 breast): 2.67 µM
- GI50 (SK-MEL-5 melanoma): 1.3 µM
- TGI (SK-MEL-5 melanoma): 2.68 µM
- GI50 (HOP-92 NSCLC): 1.92 µM
- TGI (HOP-92 NSCLC): 4.32 µM
- GI50 ([…]-0 renal): 2.26 µM
- TGI (786-0 renal): 6.55 µM
- GI50 (SN12C renal): 2.88 µM
- TGI (SN12C renal): 9.35 µM
- GI50 (SK-MEL-28 melanoma): 1.98 µM
- TGI (SK-MEL-28 melanoma): 4.25 µM
- GI50 (UACC-257 melanoma): 1.64 µM
- TGI (UACC-257 melanoma): 3.87 µM
- GI50 (U251 glioblastoma): 1.61 µM
- TGI (U251 glioblastoma): 3.97 µM
- GI50 (RPMI-8226 leukemia): 1.5 µM
- TGI (RPMI-8226 leukemia): 2.84 µM
- GI50 (LOX IMVI melanoma): 2.64 µM
- TGI (LOX IMVI melanoma): 4.81 µM
- GI50 (OVCAR-5 ovarian): 2.49 µM
- TGI (OVCAR-5 ovarian): 5.93 µM
- GI50 (HL-60(TB) leukemia): 1.87 µM
- TGI (HL-60(TB) leukemia): 3.29 µM
- GI50 (SW-620 colon): 3.22 µM
- TGI (SW-620 colon): 9.29 µM
- GI50 (KM12 colon): 1.76 µM
- TGI (KM12 colon): 3.66 µM
- GI50 (UACC-62 melanoma): 1.88 µM
- TGI (UACC-62 melanoma): 3.63 µM
- GI50 (NCI-H460 NSCLC): 1.69 µM
- TGI (NCI-H460 NSCLC): 3.26 µM
- GI50 (HT29 colon): 1.98 µM
- TGI (HT29 colon): 4.72 µM
- GI50 (MDA-MB-231 breast): 1.51 µM
- TGI (MDA-MB-231 breast): 4.38 µM
- GI50 (K-562 leukemia): 1.03 µM
- TGI (K-562 leukemia): 9.64 µM
- GI50 (SK-OV-3 ovarian): 1.92 µM
- TGI (SK-OV-3 ovarian): 4.73 µM
- GI50 (HCC-2998 colon): 1.54 µM
- TGI (HCC-2998 colon): 3.11 µM
- GI50 (OVCAR-4 ovarian): 1.25 µM
- TGI (OVCAR-4 ovarian): 3.61 µM
- GI50 (CCRF-CEM leukemia): 1.19 µM
- TGI (CCRF-CEM leukemia): 2.71 µM
- GI50 (NCI-H226 lung): 1.48 µM
- TGI (NCI-H226 lung): 3.36 µM
- GI50 (SF-539 CNS): 1.65 µM
- TGI (SF-539 CNS): 3.22 µM
- GI50 (SK-MEL-2 melanoma): 1.64 µM
- TGI (SK-MEL-2 melanoma): 3.33 µM
- GI50 (A549 NSCLC): 1.65 µM
- TGI (A549 NSCLC): 4.09 µM
- GI50 (IGROV1 ovarian): 1.93 µM
- TGI (IGROV1 ovarian): 4.73 µM
- GI50 (NCI-H322M lung): 1.88 µM
- TGI (NCI-H322M lung): 4.54 µM
- GI50 (MALME-3M melanoma): 1.66 µM
- TGI (MALME-3M melanoma): 3.92 µM
- GI50 (SNB-19 CNS): 2.76 µM
- TGI (SNB-19 CNS): 9.04 µM
- GI50 (NCI/ADR-RES ovarian): 1.91 µM
- TGI (NCI/ADR-RES ovarian): 4.63 µM
- GI50 (OVCAR-8 ovarian): 2.09 µM
- TGI (OVCAR-8 ovarian): 6.68 µM
- GI50 (HOP-62 NSCLC): 1.7 µM
- TGI (HOP-62 NSCLC): 4.16 µM
- GI50 (SR leukemia): 0.579 µM
- TGI (SR leukemia): 1.85 µM
- GI50 (M14 melanoma): 2.28 µM
- TGI (M14 melanoma): 5.23 µM
- GI50 (MOLT-4 leukemia): 1.23 µM
- TGI (MOLT-4 leukemia): 2.49 µM
- GI50 (OVCAR-3 ovarian): 1.74 µM
- TGI (OVCAR-3 ovarian): 3.41 µM
- GI50 (NCI-H23 lung): 0.333 µM
- TGI (NCI-H23 lung): 1.28 µM
- GI50 (NCI-H522 lung): 1.33 µM
- TGI (NCI-H522 lung): 3.66 µM
- GI50 (UO-31 renal): 2.33 µM
- TGI (UO-31 renal): 6.21 µM
- GI50 (SF-295 CNS): 1.28 µM
- TGI (SF-295 CNS): 2.94 µM
- GI50 (PC-3 prostate): 1.93 µM
- TGI (PC-3 prostate): 4.24 µM
- GI50 (A498 renal): 1.78 µM
- TGI (A498 renal): 4.06 µM
- GI50 (RXF 393 renal): 0.668 µM
- TGI (RXF 393 renal): 2.56 µM
- GI50 (SF-268 CNS): 1.94 µM
- TGI (SF-268 CNS): 5.63 µM
- GI50 (MCF7 breast): 1.94 µM
- TGI (MCF7 breast): 5.76 µM
- GI50 (T-47D breast): 0.999 µM
- TGI (T-47D breast): 6.82 µM
- GI50 (HCT-15 colon): 1.73 µM
- TGI (HCT-15 colon): 3.32 µM
- GI50 (ACHN renal): 2.46 µM
- TGI (ACHN renal): 6.83 µM
- GI50 (COLO 205 colon): 2.45 µM
- TGI (COLO 205 colon): 5.95 µM
- GI50 (CAKI-1 renal): 2.85 µM
- TGI (CAKI-1 renal): 7.69 µM
